These results are taken from PMC11641184, “Coumarin Derivative Hybrids: Novel Dual Inhibitors Targeting Acetylcholinesterase and Monoamine Oxidases for Alzheimer’s Therapy” (International Journal of Molecular Sciences, 2024).

For orientation: inhibition means the relative decrease from the control value, in per cent. Usually IC50 stands for the concentration at which inhibition is half-maximal.

The target in one series is T1, human recombinant AChE (Homo sapiens, UniProt P22303).
T1 construct: purchased Aldrich (Milan, Italy)
Nature of the series: biochemical. The conditions noted are these: for inhibition at 10 µM: read-out: hAChE % inhibition at 10 μM ± SD, 10 μM inhibitor, human recombinant AChE, n = 3. The method, then: (§1) All enzymes and chemicals were purchased from Aldrich (Milan, Italy). Inhibition assays were performed in 96-well plates (Greiner Bio-One GmbH, Frickenhausen, Germany) using an Infinite M1000 plate reader (Tecan, Milan, Italy). Incubations were performed in triplicate, and final inhibition values were determined as mean ± SEM (n = 3).
The inhibition of human recombinant AChE was determined as already reported by applying Ellman’s spectrophotometric method.

A further series deals with T2, hMAO-A (Homo sapiens, UniProt P21397).
T2 construct: purchased Aldrich (Milan, Italy)
T2 sequence (P21397 1-527): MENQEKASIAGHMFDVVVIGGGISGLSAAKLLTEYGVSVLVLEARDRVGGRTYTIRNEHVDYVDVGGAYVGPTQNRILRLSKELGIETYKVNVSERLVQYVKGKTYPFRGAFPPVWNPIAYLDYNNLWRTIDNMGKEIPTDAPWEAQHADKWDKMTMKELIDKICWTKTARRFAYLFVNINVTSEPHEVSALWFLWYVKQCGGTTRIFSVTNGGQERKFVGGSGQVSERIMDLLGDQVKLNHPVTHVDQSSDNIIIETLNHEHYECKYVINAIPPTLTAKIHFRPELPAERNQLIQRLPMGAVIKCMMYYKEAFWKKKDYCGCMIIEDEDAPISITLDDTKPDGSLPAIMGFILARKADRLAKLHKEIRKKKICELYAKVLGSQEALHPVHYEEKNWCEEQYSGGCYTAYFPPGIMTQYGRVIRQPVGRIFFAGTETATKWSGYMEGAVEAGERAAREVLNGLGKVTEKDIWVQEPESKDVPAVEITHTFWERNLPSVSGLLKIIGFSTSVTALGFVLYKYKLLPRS
Nature of the series: biochemical. The following applies: read-out: hMAO-A % inhibition at 10 μM ± SD; 10 μM inhibitor, human recombinant MAO-A, n = 3. The method, then: as §1
(§2) Incubations were set at 37 °C in phosphate buffer with a pH of 7.4 for 20 min before the addition of enzyme, and the fluorescence was measured after additional incubation of 30 min.

The target in a further series is T3, hMAO-B (Homo sapiens, UniProt P27338).
T3 construct: purchased Aldrich (Milan, Italy)
T3 sequence (P27338 1-520): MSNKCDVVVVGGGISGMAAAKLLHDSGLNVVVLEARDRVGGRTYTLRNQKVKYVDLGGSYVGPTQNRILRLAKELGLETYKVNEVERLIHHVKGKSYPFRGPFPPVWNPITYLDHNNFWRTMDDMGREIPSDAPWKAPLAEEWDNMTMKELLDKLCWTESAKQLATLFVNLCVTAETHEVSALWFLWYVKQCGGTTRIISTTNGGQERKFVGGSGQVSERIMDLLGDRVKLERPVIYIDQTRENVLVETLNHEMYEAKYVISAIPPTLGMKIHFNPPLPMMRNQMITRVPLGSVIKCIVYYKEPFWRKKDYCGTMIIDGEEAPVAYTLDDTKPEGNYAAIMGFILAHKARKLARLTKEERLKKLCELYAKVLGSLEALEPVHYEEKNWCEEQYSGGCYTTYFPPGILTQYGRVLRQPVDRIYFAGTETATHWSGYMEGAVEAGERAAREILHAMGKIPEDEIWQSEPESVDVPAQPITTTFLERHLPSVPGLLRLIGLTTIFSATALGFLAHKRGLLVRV
Nature of the series: biochemical. The following applies: human recombinant MAO-B; for IC50: kynuramine, 37 °C, pH 7.4, n = 3, read-out: hMAO-B IC50 ± SEM; for inhibition at 10 µM: read-out: hMAO-B % inhibition at 10 μM ± SD, 10 μM inhibitor, n = 3. The method, then:
as §1, §2

The conditions of series [1]: in silico and in vitro studies; cited from earlier work.
A further series relates to hAChE. On the set-up: method as in PMID 10213168. The conditions noted are these: read-out: hAChE IC50 in vitro; cited from earlier work.

T1 sequence (P22303 32-614): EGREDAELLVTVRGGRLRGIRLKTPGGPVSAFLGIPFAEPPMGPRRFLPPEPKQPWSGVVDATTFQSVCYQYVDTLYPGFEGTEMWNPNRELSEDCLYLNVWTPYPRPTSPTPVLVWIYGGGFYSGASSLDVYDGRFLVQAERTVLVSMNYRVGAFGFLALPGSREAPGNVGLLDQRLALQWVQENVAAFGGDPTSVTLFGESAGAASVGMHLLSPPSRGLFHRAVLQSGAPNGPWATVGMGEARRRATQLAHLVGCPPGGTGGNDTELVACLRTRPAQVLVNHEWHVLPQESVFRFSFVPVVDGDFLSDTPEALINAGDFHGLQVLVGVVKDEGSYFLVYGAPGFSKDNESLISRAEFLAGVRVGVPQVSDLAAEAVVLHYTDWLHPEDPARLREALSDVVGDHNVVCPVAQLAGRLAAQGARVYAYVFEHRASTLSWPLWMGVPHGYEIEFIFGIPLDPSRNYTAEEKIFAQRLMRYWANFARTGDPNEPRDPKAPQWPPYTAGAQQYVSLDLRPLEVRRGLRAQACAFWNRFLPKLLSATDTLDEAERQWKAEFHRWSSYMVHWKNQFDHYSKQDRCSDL

With `COc1cccc(N2CCN(CCCOc3cc(C)cc4oc(=O)cc(C)c34)CC2)c1` [Compound 3, 4,7-dimethyl-5-[3-(4-(3-methoxyphenyl)piperazin-1-yl)propoxy]coumarin], the figures for the inhibition at 10 µM at human recombinant AChE and at hMAO-A were 53 ± 2% and 39 ± 5%, respectively. The IC50 on hMAO-B amounted to 1880 ± 450 nM. The pharmacokinetic properties entry in series [1] was “excellent pharmacokinetic properties”.

Turning to `COc1ccccc1N1CCN(CCCCOc2ccc3c(C)cc(=O)oc3c2C(C)=O)CC1` [Compound 10, 8-acetyl-7-{4-[4-(2-methoxyphenyl)piperazin-1-yl]butoxy}-4-methylchromen-2-one], the IC50 at human recombinant AChE worked out at 1520 ± 660 nM. Moreover, the inhibition at 10 µM at hMAO-A stood at 52 ± 4%; on hMAO-B, 24 ± 1%. Further, in series [1], the pharmacokinetic properties result is given as “excellent pharmacokinetic properties”.

Take `COc1cc2oc(=O)c(C)c(C)c2cc1OCCCN1CCN(c2ccccc2OC)CC1` [Ensaculin]: the IC50 in the series on hAChE is 360 nM.

As for `COc1cccc(N2CCN(CCCCOc3c(C(C)=O)c(C)cc4oc(=O)cc(C)c34)CC2)c1` [Compound 8, 6-acetyl-4,7-dimethyl-5-[4-(4-(3-methoxyphenyl)piperazin-1-yl)butoxy]coumarin], the inhibition at 10 µM worked out at 54 ± 8% on human recombinant AChE, 55 ± 2% at hMAO-A and 26 ± 2% on hMAO-B.

Turning to `COc1ccccc1N1CCN(CCCCOc2c(C(C)=O)c(C)cc3oc(=O)cc(C)c23)CC1` [Compound 6, 6-acetyl-4,7-dimethyl-5-[4-(4-(2-methoxyphenyl)piperazin-1-yl)butoxy]coumarin], the figures for the inhibition at 10 µM at human recombinant AChE, on hMAO-A and on hMAO-B were 48 ± 1%, 30 ± 5% and 43 ± 3%, respectively.

On to `COc1cccc(N2CCN(CCCCOc3cc(C)cc4oc(=O)cc(C)c34)CC2)c1` [Compound 4, 4,7-dimethyl-5-[4-(4-(3-methoxyphenyl)piperazin-1-yl)butoxy]coumarin], for which the inhibition at 10 µM on human recombinant AChE turned out to be 56 ± 1%; at hMAO-A, 38 ± 4%. For the same compound, on hMAO-B, the IC50 amounted to 3180 ± 630 nM.

Turning to `COc1cccc(N2CCN(CCCOc3c(C(C)=O)c(C)cc4oc(=O)cc(C)c34)CC2)c1` [Compound 7, 6-acetyl-4,7-dimethyl-5-[3-(4-(3-methoxyphenyl)piperazin-1-yl)propoxy]coumarin], the inhibition at 10 µM at human recombinant AChE worked out at 46 ± 3%; on hMAO-A it was 39 ± 3%; at hMAO-B, 35 ± 3%.

In the case of `COc1ccccc1N1CCN(CCCCOc2cc(C)cc3oc(=O)cc(C)c23)CC1` [Compound 2, 4,7-dimethyl-5-[4-(4-(2-methoxyphenyl)piperazin-1-yl)butoxy]coumarin], the inhibition at 10 µM turned out to be 61 ± 4% at human recombinant AChE, 19 ± 1% on hMAO-A and 33 ± 2% on hMAO-B.

Turning to `COc1ccccc1N1CCN(CCCOc2cc(C)cc3oc(=O)cc(C)c23)CC1` [Compound 1, 4,7-dimethyl-5-{3-[4-(2-methoxyphenyl)piperazin-1-yl]propoxy}coumarin], the inhibition at 10 µM on human recombinant AChE was found to be 61 ± 1%; on hMAO-A, 44 ± 4%. On hMAO-B, the IC50 was 2180 ± 480 nM.

Regarding `COc1ccccc1N1CCN(CCCOc2c(C(C)=O)c(C)cc3oc(=O)cc(C)c23)CC1` [Compound 5, 6-acetyl-4,7-dimethyl-5-[3-(4-(2-methoxyphenyl)piperazin-1-yl)propoxy]coumarin], the figures for the inhibition at 10 µM at human recombinant AChE, at hMAO-A and on hMAO-B were 50 ± 6%, 22 ± 3% and 34 ± 2%, respectively.

Consider `COc1ccccc1N1CCN(CCCOc2ccc3c(C)cc(=O)oc3c2C(C)=O)CC1` [Compound 9, 8-acetyl-7-{3-[4-(2-methoxyphenyl)piperazin-1-yl]propoxy}-4-methylchromen-2-one], for which the inhibition at 10 µM at human recombinant AChE was 59 ± 7%; on hMAO-A, 32 ± 4%. Moreover, the IC50 at hMAO-B was determined as 4760 ± 340 nM.
